Experimental data: patent publication US8574563B2 (Bristol-Myers Squibb Company, priority 2006, dated 2013)

What follows are compounds tested on HCV 1b-377-neo replicon cells (assay: HCV replicon assay, HCV 1b-377-neo replicon cells (1b FRET)). Conditions: Hepatitis C virus, HCV 1b-377-neo replicon cells; HCV 1b genotype; read-out: EC50 range against HCV 1b (Table 2, Range).
Type: cell-based, Hepatitis C virus genotype 1b
Procedure, shortened: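 Compounds tested in HCV genotype 1b-377-neo replicon cells with a FRET read-out. Cells resistant to a reference NS5A inhibitor through a Y2065H NS5A mutation were run alongside wild-type cells.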
`COC(=O)N[C@@H](CC(=O)N1CCC[C@H]1c1ncc(-c2ccc(-c3ccc(-c4cnc([C@@H]5CCCN5C(=O)C[C@@H](Cc5cccs5)NC(=O)OC)[nH]4)cc3)cc2)[nH]1)Cc1cccs1` [cj-138, dimethyl (4,4′-biphenyldiylbis(1H-imidazole-5,2-diyl(2S)-2,1-pyrrolidinediyl((2S)-4-oxo-1-(2-thienyl)-4,2-butanediyl)))biscarbamate] was tested, and the EC50 was 1000 to 10000 nM.
With `COC(=O)N[C@H](C(=O)N1CCC[C@H]1c1ncc(-c2ccc(-c3ccc(-c4cnc([C@@H]5CCCN5C(=O)[C@H](NC(=O)OC)c5ccccc5)[nH]4)c(F)c3)cc2F)[nH]1)[C@H](C)OC` [Example D65, methyl ((1S,2R)-1-(((2S)-2-(5-(3,3′-difluoro-4′-(2-((2S)-1-((2R)-2-((methoxyearbonyl)amino)-2-phenylacetyl)-2-pyrrolidinyl)-1H-imidazol-5-yl)-4-biphenylyl)-1H-imidazol-2-yl)-1-pyrrolidinyl)carbonyl)-2-methoxypropyl) carbamate bis(trifluoroacetate)] the EC50 was 0.001 to 0.999 nM.
In the case of `CN(C)[C@@H](C(=O)N1CCC[C@H]1c1ncc(-c2ccc(-c3ccc(-c4cnc([C@@H]5CCCN5C(=O)C(c5ccccc5)c5ccccc5)[nH]4)cc3)cc2)[nH]1)c1ccccc1` [Example 94-36, (1R)-2-((2S)-2-(5-(4′-(2-((2S)-1-(diphenylacetyl)-2-pyrrolidinyl)-1H-imidazol-5-yl)-4-biphenylyl)-1H-imidazol-2-yl)-1-pyrrolidinyl)-N,N-dimethyl-2-oxo-1-phenylethanamine], the EC50 is reported as 0.001 to 0.999 nM.
`COC(=O)N[C@@H](Cc1ccc(CNC(C)=O)cc1)C(=O)N1CCC[C@H]1c1ncc(-c2ccc(-c3ccc(-c4cnc([C@@H]5CCCN5C(=O)[C@@H](NC(=O)OC)C(C)C)[nH]4)cc3)cc2)[nH]1` [cj-114, methyl ((1S)-1-(4-(acetamidomethyl)benzyl)-2-((2S)-2-(5-(4′-(2-((2S)-1-((2S)-2-((methoxycarbonyl)amino)-3-methylbutanoyl)-2-pyrrolidinyl)-1H-imidazol-5-yl)-4-biphenylyl)-1H-imidazol-2-yl)-1-pyrrolidinyl)-2-oxoethyl)carbamate] was tested, and the EC50 was 0.001 to 0.999 nM.
`COC(=O)N[C@@H](C(=O)N1CCC[C@H]1c1ncc(-c2ccc(-c3ccc(-c4cnc([C@@H]5CCCN5C(=O)Cc5ccc(OC)cc5)[nH]4)cc3)cc2)[nH]1)c1ccccc1` [Example 84-63, methyl ((1R)-2-((2S)-2-(5-(4′-(2-((2S)-1-((4-methoxyphenyl)acetyl)-2-pyrrolidinyl)-1H-imidazol-5-yl)-4-biphenylyl)-1H-imidazol-2-yl)-1-pyrrolidinyl)-2-oxo-1-phenylethyl)carbamate] was tested, and the EC50 was 0.001 to 0.999 nM.
`CCN(CC)[C@@H](C(=O)N1CCC[C@H]1c1ncc(-c2ccc(-c3ccc(-c4cnc([C@@H]5CCCN5C(=O)[C@@H](C)O)[nH]4)cc3)cc2)[nH]1)c1ccccc1` [Example M39, (2R)-1-((2S)-2-(5-(4′-(2-((2S)-1-((2R)-2-(diethylamino)-2-phenylacetyl)-2-pyrrolidinyl)-1H-imidazol-5-yl)-4-biphenylyl)-1H-imidazol-2-yl)-1-pyrrolidinyl)-1-oxo-2-propanol] showed an EC50 of 1 to 99 nM.
Work on `COC(=O)N[C@H](C(=O)N1CCC[C@H]1c1ncc(-c2ccc(-c3ccc(-c4cnc([C@@H]5CCCN5C(=O)[C@H](NC5=NCCN5C)C(C)C)[nH]4)cc3)cc2)[nH]1)C(C)C` [cj-11m, methyl ((1S)-2-methyl-1-(((2S)-2-(5-(4′-(2-((2S)-1-(N-(1-methyl-4,5-dihydro-1H-imidazol-2-yl)-D-valyl)-2-pyrrolidinyl)-1H-imidazol-5-yl)-4-biphenylyl)-1H-imidazol-2-yl)-1-pyrrolidinyl)carbonyl)propyl)carbamate] yielded an EC50 of 1 to 99 nM.
`COC(=O)N[C@@H](C(=O)N1CCC[C@H]1c1ncc(-c2ccc(-c3ccc(-c4cnc([C@@H]5CCCN5C(=O)OC)[nH]4)cc3)cc2)[nH]1)c1ccccc1` [Example 77, methyl (2S)-2-(5-(4′-(2-((2S)-1-((2R)-2-((methoxycarbonyl)amino)-2-phenylacetyl)-2-pyrrolidinyl)-1H-imidazol-5-yl)-4-biphenylyl)-1H-imidazol-2-yl)-1-pyrrolidinecarboxylate] gave an EC50 of 0.001 to 0.999 nM.
Work on `COC(=O)N[C@H](C(=O)N1CCC[C@H]1c1ncc(-c2ccc(-c3ccc(-c4cnc([C@@H]5CCCN5C(=O)[C@H](NC5=NCCN5)C(C)C)[nH]4)cc3)cc2)[nH]1)C1CC1` [cj-11o, methyl ((1S)-1-cyclopropyl-2-((2S)-2-(5-(4′-(2-((2S)-1-(N-(4,5-dihydro-1H-imidazol-2-yl)-D-valyl)-2-pyrrolidinyl)-1H-imidazol-5-yl)-4-biphenylyl)-1H-imidazol-2-yl)-1-pyrrolidinyl)-2-oxoethyl)carbamate] yielded an EC50 of 1 to 99 nM.
`COC(=O)N[C@@H](C(=O)N1CCC[C@H]1c1ncc(-c2ccc(-c3ccc(-c4cnc([C@@H]5CCCN5C(=O)CN5CCN(C)CC5)[nH]4)cc3)cc2)[nH]1)c1ccccc1` [Example 57, methyl ((1R)-2-((2S)-2-(5-(4′-(2-((2S)-1-((4-methyl-1-piperazinyl)acetyl)-2-pyrrolidinyl)-1H-imidazol-5-yl)-4-biphenylyl)-1H-imidazol-2-yl)-1-pyrrolidinyl)-2-oxo-1-phenylethyl)carbamate] gave an EC50 of 0.001 to 0.999 nM.
For `COC(=O)N[C@H](C(=O)N1[C@H](c2ncc(-c3ccc(-c4ccc(-c5cnc([C@@H]6C[C@@H]7C[C@@H]7N6C(=O)[C@@H](NC(=O)OC)C(C)(C)O)[nH]5)cc4)cc3)[nH]2)C[C@@H]2C[C@@H]21)C(C)(C)O` [Example M125, methyl ((1S)-2-hydroxy-1-(((1S,3S,5S)-3-(5-(4′-(2-((1S,3S,5S)-2-((2S)-3-hydroxy-2-((methoxycarbonyl)amino)-3-methylbutanoyl)-2-azabicyclo[3.1.0]hex-3-yl)-1H-imidazol-5-yl)-4-biphenylyl)-1H-imidazol-2-yl)-2-azabicyclo[3.1.0]hex-2-yl)carbonyl)-2-methylpropyl)carbamate], the EC50 was 1 to 99 nM.
Work on `CCCN(CCC)[C@@H](C)C(=O)N1CCC[C@H]1c1ncc(-c2ccc(-c3ccc(-c4cnc([C@@H]5CCCN5C(=O)[C@H](C)NC(=O)OC)[nH]4)cc3)cc2)[nH]1` [Example M103, methyl ((1S)-2-((2S)-2-(5-(4′-(2-((2S)-1-(N,N-dipropyl-L-alanyl)-2-pyrrolidinyl)-1H-imidazol-5-yl)-4-biphenylyl)-1H-imidazol-2-yl)-1-pyrrolidinyl)-1-methyl-2-oxoethyl)carbamate] yielded an EC50 of 100 to 999 nM.
For `COC(=O)c1nc([C@@H]2CCCN2C(=O)[C@@H](c2ccccc2)N2CCCCC2)[nH]c1-c1ccc(-c2ccc(-c3cnc([C@@H]4CCCN4C(=O)[C@@H](c4ccccc4)N4CCCCC4)[nH]3)cc2)cc1` [Example J18, methyl 2-((2S)-1-((2R)-2-phenyl-2-(1-piperidinyl)acetyl)-2-pyrrolidinyl)-5-(4′-(2-((2S)-1-((2R)-2-phenyl-2-(1-piperidinyl)acetyl)-2-pyrrolidinyl)-1H-imidazol-5-yl)-4-biphenylyl)-1H-imidazole-4-carboxylate], the EC50 was 0.001 to 0.999 nM.
`COC(=O)N[C@H](C(=O)N1CCC[C@H]1c1ncc(-c2ccc(-c3ccc(-c4cnc([C@@H]5CCCN5C(=O)[C@@H](Nc5cccnc5)C(C)C)[nH]4)cc3)cc2)[nH]1)[C@@H](C)OC` [cj-20b, methyl ((1S,2R)-2-methoxy-1-(((2S)-2-(5-(4′-(2-((2S)-1-(N-3-pyridinyl-L-valyl)-2-pyrrolidinyl)-1H-imidazol-5-yl)-4-biphenylyl)-1H-imidazol-2-yl)-1-pyrrolidinyl)carbonyl)propyl)carbamate] showed an EC50 of 0.001 to 0.999 nM.
`COC(=O)N[C@@H](C(=O)N1CCC[C@H]1c1ncc(-c2ccc(-c3ccc(-c4cnc([C@@H]5CCCN5C(=O)Cc5nnn[nH]5)[nH]4)cc3)cc2)[nH]1)c1ccccc1` [Example 65, methyl ((1R)-2-oxo-1-phenyl-2-((2S)-2-(5-(4′-(2-((2S)-1-(1H-tetrazol-5-ylacetyl)-2-pyrrolidinyl)-1H-imidazol-5-yl)-4-biphenylyl)-1H-imidazol-2-yl)-1-pyrrolidinyl)ethyl)carbamate] was tested, and the EC50 was 1 to 99 nM.
`COC(=O)N[C@@H](C(=O)N1CCC[C@H]1c1ncc(-c2ccc(-c3ccc(-c4[nH]c([C@@H]5CCCN5C(=O)[C@H](NC(=O)OC)c5ccccc5)nc4C(N)=O)cc3)cc2)[nH]1)c1ccccc1` [Example J29, methyl ((1R)-2-((2S)-2-(4-carbamoyl-5-(4′-(2-((2S)-1-((2R)-2-((methoxycarbonyl)amino)-2-phenylacetyl)-2-pyrrolidinyl)-1H-imidazol-5-yl)-4-biphenylyl)-1H-imidazol-2-yl)-1-pyrrolidinyl)-2-oxo-1-phenylethyl)carbamate] was tested, and the EC50 was 0.001 to 0.999 nM.
`CCN(CC)[C@H](C)C(=O)N1CCC[C@H]1c1ncc(-c2ccc(-c3ccc(-c4cnc([C@@H]5CCCN5C(=O)[C@H](NC(=O)OC)c5ccccc5)[nH]4)c(F)c3)cc2F)[nH]1` [Example D63, methyl ((1R)-2-((2S)-2-(5-(4′-(2-((2S)-1-(N,N-diethyl-D-alanyl)-2-pyrrolidinyl)-1H-imidazol-5-yl)-3,3′-difluoro-4-biphenylyl)-1H-imidazol-2-yl)-1-pyrrolidinyl)-2-oxo-1-phenylethyl)carbamate] showed an EC50 of 0.001 to 0.999 nM.
Work on `COC(=O)N[C@@H](C(=O)N1CCC[C@H]1c1ncc(-c2ccc(-c3ccc(-c4cnc([C@@H]5CCCN5C(=O)C5(C)CCN(C(=O)OC(C)(C)C)CC5)[nH]4)cc3)cc2)[nH]1)c1ccccc1` [Example 84-12, tert-butyl 4-(((2S)-2-(5-(4′-(2-((2S)-1-((2R)-2-((methoxycarbonyl)amino)-2-phenylacetyl)-2-pyrrolidinyl)-1H-imidazol-5-yl)-4-biphenylyl)-1H-imidazol-2-yl)-1-pyrrolidinyl)carbonyl)-4-methyl-1-piperidinecarboxylate] yielded an EC50 of 0.001 to 0.999 nM.
Work on `COC(=O)N[C@@H](C(=O)N1CCC[C@H]1c1ncc(-c2ccc(-c3ccc(-c4cnc([C@@H]5CCCN5C(=O)[C@@H](c5ccccc5)N5CCC(C)(O)CC5)[nH]4)cc3)cc2)[nH]1)c1ccccc1` [Example 84-4, methyl ((1R)-2-((2S)-2-(5-(4′-(2-((2S)-1-((2R)-2-(4-hydroxy-4-methyl-1-piperidinyl)-2-phenylacetyl)-2-pyrrolidinyl)-1H-imidazol-5-yl)-4-biphenylyl)-1H-imidazol-2-yl)-1-pyrrolidinyl)-2-oxo-1-phenylethyl)carbamate] yielded an EC50 of 0.001 to 0.999 nM.
